Patent US20240391862A1, “(1,4,5-TRISUBSTITUTED-1H-PYRAZOL-3-YL)OXY-2-ALKOXY ALKYL ACIDS AND THEIR DERIVATIVES, THEIR SALTS AND THEIR USE AS HERBICIDAL AGENTS” (Bayer AKtiengesellschaft, priority 2021, published 2024)

Legend:
Experiment in all cases: Post-emergence herbicidal effect, greenhouse pot test
KCHSC = assay type: in vivo; details: for pest or weed control at 20 g/ha: 504 h, read-out: Post-emergence effect against KCHSC in %
In short: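 Visual rating of activity against untreated plants (100% = plants died, 0% = no effect), done about 3 weeks after treatment. Compounds applied at 20–320 g/ha as aqueous spray (600 l/ha, 0.5% additive) from WP or EC formulations onto one-leaf-stage plants grown in sandy loam under greenhouse conditions.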

VERPE = assay type: in vivo, Veronica persica
In short: (§1)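 Sandy loam pots, greenhouse. One-leaf stage (2–3 wk after sowing) foliar spray; WP/EC in water + 0.5% additive, 600 l/ha; 20–320 g/ha. Visual score ~3 wk, 0–100% vs untreated.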

ABUTH = assay type: in vivo, Abutilon theophrasti; details: visual rating about 3 weeks after treatment
In short: as §1

LOLRI = assay type: in vivo, Lolium rigidum
In short: as §1

ECHCG = assay type: in vivo, Echinochloa crus-galli; details: for Post-emergence effect against ECHCG: 20 g/ha, visual rating about 3 weeks after treatment
In short: as §1

ALOMY = assay type: in vivo, Alopecurus myosuroides; details: visual rating about 3 weeks after treatment
In short: as §1

AVEFA = assay type: in vivo, Avena fatua; details: visual rating about 3 weeks after treatment
In short: as §1

DIGSA = assay type: in vivo, Digitaria sanguinalis; details: visual rating about 3 weeks after treatment; for Post-emergence effect against DIGSA: 320 g/ha; for pest or weed control at 80 g/ha: Digitaria sanguinalis, 504 h, read-out: Post-emergence effect against DIGSA
In short: as §1

POLCO = assay type: in vivo, Fallopia convolvulus
In short: as §1

SETVI = assay type: in vivo, Setaria viridis; details: for pest or weed control at 20 g/ha: Setaria viridis, 504 h, read-out: Post-emergence effect against SETVI in %
In short: as §1

VIOTR = assay type: in vivo, Viola tricolor
In short: as §1

PHBPU = assay type: in vivo, Ipomoea purpurea
In short: as §1

MATIN = assay type: in vivo, Tripleurospermum inodorum
In short: as §1

AMARE = assay type: in vivo, Amaranthus retroflexus; details: visual rating about 3 weeks after treatment
In short: as §1

Structure (SMILES) | Post-emergence effect against KCHSC in % (KCHSC; 80 g/ha) | Post-emergence effect against KCHSC in % (KCHSC; 320 g/ha) | pest or weed control at 20 g/ha (KCHSC) | Post-emergence effect against VERPE in % (VERPE; 80 g/ha) | Post-emergence effect against VERPE in % (VERPE; 320 g/ha) | Post-emergence effect against ABUTH (ABUTH; 80 g/ha) | Post-emergence effect against ABUTH (ABUTH; 320 g/ha) | Post-emergence effect against LOLRI in % (LOLRI; 320 g/ha) | Post-emergence effect against ECHCG (ECHCG) | Post-emergence effect against ECHCG in % (ECHCG; 80 g/ha) | Post-emergence effect against ECHCG in % (ECHCG; 320 g/ha) | Post-emergence effect against ALOMY (ALOMY; 320 g/ha) | Post-emergence effect against AVEFA (AVEFA; 80 g/ha) | Post-emergence effect against AVEFA (AVEFA; 320 g/ha) | Post-emergence effect against DIGSA (DIGSA) | pest or weed control at 80 g/ha (DIGSA) | Post-emergence effect against POLCO in % (POLCO; 80 g/ha) | Post-emergence effect against POLCO in % (POLCO; 320 g/ha) | Post-emergence effect against SETVI in % (SETVI; 80 g/ha) | Post-emergence effect against SETVI in % (SETVI; 320 g/ha) | other results
COC(Oc1nn(-c2ncccc2F)c(-c2cncc(F)c2)c1C1CC1)C(=O)O (stereo not shown) [Example I-84] | 90% | 90% | 90% | 90% | 90% | 80% | 80% | 90% | 90% | 90% | 90% | 90% | 90% | 90% | 90% | 80% | 90% | 90% | 90% | 90% | pest or weed control at 80 g/ha (LOLRI; Lolium rigidum, 504 h, 80 g/ha, read-out: Post-emergence effect against LOLRI in %): 90%; pest or weed control at 20 g/ha (SETVI): 80%; Post-emergence effect against VIOTR in % (VIOTR; 80 g/ha): 90%; Post-emergence effect against VIOTR in % (VIOTR; 320 g/ha): 90%; Post-emergence effect against PHBPU in % (PHBPU; 80 g/ha): 90%; Post-emergence effect against PHBPU in % (PHBPU; 320 g/ha): 90%; pest or weed control at 20 g/ha (PHBPU; Ipomoea purpurea, 504 h, 20 g/ha, read-out: Post-emergence effect against PHBPU in %): 80%; Post-emergence effect against MATIN in % (MATIN; 80 g/ha): 80%; Post-emergence effect against MATIN in % (MATIN; 320 g/ha): 80%; Post-emergence effect against AMARE (AMARE; 320 g/ha): 80%; pest or weed control at 80 g/ha (AMARE; Amaranthus retroflexus, 504 h, 80 g/ha, read-out: Post-emergence effect against AMARE): 80%
COC(=O)C(OC)Oc1nn(-c2ncccc2F)c(-c2cncc(F)c2)c1C1CC1 (stereo not shown) [Example I-87] | 90% | 90% | 90% | 90% | 90% | 90% | 90% | 90% | 90% | 90% | 90% | 90% | 90% | 90% | 90% | 80% | 90% | 90% | 90% | 90% | pest or weed control at 20 g/ha (VERPE; Veronica persica, 504 h, 20 g/ha, read-out: Post-emergence effect against VERPE in %): 80%; pest or weed control at 20 g/ha (ABUTH; Abutilon theophrasti, 504 h, 20 g/ha, read-out: Post-emergence effect against ABUTH): 90%; Post-emergence effect against LOLRI in % (LOLRI; 80 g/ha): 90%; Post-emergence effect against ALOMY (ALOMY; 80 g/ha): 90%; Post-emergence effect against POLCO in % (POLCO; 20 g/ha): 80%; pest or weed control at 20 g/ha (SETVI): 90%; Post-emergence effect against VIOTR in % (VIOTR; 20 g/ha): 90%; Post-emergence effect against VIOTR in % (VIOTR; 80 g/ha): 90%; Post-emergence effect against VIOTR in % (VIOTR; 320 g/ha): 90%; Post-emergence effect against PHBPU in % (PHBPU; 20 g/ha): 90%; Post-emergence effect against PHBPU in % (PHBPU; 80 g/ha): 90%; Post-emergence effect against PHBPU in % (PHBPU; 320 g/ha): 90%; Post-emergence effect against MATIN in % (MATIN; 80 g/ha): 80%; Post-emergence effect against MATIN in % (MATIN; 320 g/ha): 80%; Post-emergence effect against AMARE (AMARE; 80 g/ha): 80%; Post-emergence effect against AMARE (AMARE; 320 g/ha): 90%
